Reference: PubChem BioAssay AID849 (SRMLSC, 2007)
pIC50: −log10 of the molar value. Calls of active or inactive are those of the source. No rule for the calls is given here.

test system: Saccharomyces cerevisiae lifespan shortening, growth inhibition; test: Saccharomyces cerevisiae growth inhibition potency – dose response (AID 849);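 also: yeast growth read as optical density after two days at 30 degrees C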

Question: `COc1ccc2nc(/N=C(\N)NC(=O)Nc3ccccc3)nc(C)c2c1` was tested. Which pIC50 did it give?
Answer: 4.30

Question: How did the IC50 turn out when `CCc1cccc(CC)c1NC(=S)NCc1ccc2[nH]c(C)cc2c1` was run?
Answer: > 100 µM (inactive)

Question: With `COc1ccc2c(c1)c1nnc(SC)nc1n2C` as the compound, how does the pIC50 read?
Answer: 4.36

Question: `C/C(=N\Nc1ccc(Cl)c(Cl)c1)c1ccc(-n2ccnc2)cc1` was tested. Which pIC50 did it give?
Answer: 4.52

Question: `CCCn1c(C)cc(C(=O)COC(=O)c2ccc[nH]c2=O)c1C` was tested. Which pIC50 did it give?
Answer: 4.45

Question: `Nc1[nH]c(=O)ncc1F` was tested. Which pIC50 did it give?
Answer: 4.93

Question: With `N#C/C(=N/O)c1nc(-c2ccc(F)cc2)cs1` as the compound, how does the pIC50 read?
Answer: 4.60

Question: `CCOC(=O)c1c(NC(=O)C(C)Sc2cccc[n+]2[O-])sc2c1CCN(Cc1ccccc1)C2` (stereo not drawn) was tested. Which pIC50 did it give?
Answer: 4.90

Question: `CCCCc1ccc(NS(=O)(=O)c2cccs2)cc1` was tested. Which pIC50 did it give?
Answer: 4.45

Question: How did the pIC50 turn out when `CCc1cc2c(cc(C(=O)O)n2C)s1` was run?
Answer: 4.42

Question: With `CCC1CCCCN1C(=O)CSc1nnc(-c2ccc(OC)cc2)o1` (stereo not drawn) as the compound, how does the IC50 read?
Answer: > 100 µM (inactive)

Question: For `Cc1ccc(C)c(-n2nnnc2SCC(=O)Nc2cccc(-c3nnc4n3CCCCC4)c2)c1`, which IC50 is on record?
Answer: > 100 µM (inactive)

Question: With `O=C(Nc1cccc(N=Cc2cc(Br)cc(Br)c2O)c1)c1ccco1` as the compound, how does the pIC50 read?
Answer: 4.71

Question: `CC(=O)N1c2ccccc2C2(O)N=C(C)SC12` (stereo not drawn) was tested. Which IC50 did it give?
Answer: > 100 µM (inactive)

Question: `COc1cccc(CC(=O)Nc2ccc3nc(C)sc3c2)c1` was tested. Which pIC50 did it give?
Answer: 4.46

Question: Which IC50 does the source give for `COc1cccc(/C=N/N2C(=O)CSC2=S)c1O` here?
Answer: > 100 µM (inactive)

Question: Which IC50 does the source give for `O=C(OCn1ncc(Cl)c(Cl)c1=O)c1cccc(C(F)(F)F)c1` here?
Answer: > 100 µM (inactive)

Question: How did the IC50 turn out when `CCOc1ccccc1C1CC(c2ccc(Br)cc2)Nc2nc(N)nn21` (stereo not drawn) was run?
Answer: > 100 µM (inactive)

Question: For `CCCCCC1CCC(C(=O)O)CC1` (stereo not drawn), which IC50 is on record?
Answer: > 100 µM (inactive)

Question: How did the IC50 turn out when `O=c1oc2ccccc2cc1-c1cn2cccnc2n1` was run?
Answer: > 100 µM (inactive)

Question: `Cc1ccc(-n2c(C)cc(C(=O)COC(=O)c3ccc[nH]c3=O)c2C)cc1` was tested. Which pIC50 did it give?
Answer: 4.74

Question: `COc1ccc(-c2n[nH]c(C)c2-c2ccc(Cl)cc2)c(O)c1` was tested. Which pIC50 did it give?
Answer: 4.48

Question: For `NC(N)=N/N=C/c1ccc(OCc2ccc(Cl)cc2Cl)cc1`, which IC50 is on record?
Answer: > 100 µM (inactive)

Question: With `CCCc1ccc(Oc2c(-c3ccc(O)c(C)c3O)n[nH]c2C)cc1` as the compound, how does the pIC50 read?
Answer: 5.15

Question: How did the pIC50 turn out when `COc1ccc(/C=C2/C(=O)ON=C2c2ccccc2)cc1OC` was run?
Answer: 4.48

Question: With `CCn1ncc(C2=NOC(C(=O)Nc3c(C)n(C)n(-c4ccccc4)c3=O)C2)c1C` (stereo not drawn) as the compound, how does the IC50 read?
Answer: > 100 µM (inactive)

Question: Which IC50 does the source give for `O=C(C1=C(O)/C(=C/c2ccc(O)cc2)CCC1)C(F)(F)F` here?
Answer: > 100 µM (inactive)

Question: `Cc1ccccc1NC(=S)c1nc2ccccc2[nH]1` was tested. Which pIC50 did it give?
Answer: 4.53

Question: Which IC50 does the source give for `CC1=CC(=O)C=C(C)C1=NOS(=O)(=O)c1ccccc1` here?
Answer: > 100 µM (inactive)

Question: How did the pIC50 turn out when `C=CCN1C(=O)/C(=C/c2cccs2)C(=O)NC1=S` was run?
Answer: 4.76

Question: How did the pIC50 turn out when `CC(N=Cc1cccc(O)c1O)c1ccccc1` (stereo not drawn) was run?
Answer: 5.04

Question: `O=C(CC(=O)c1ccccc1O)c1ccc(F)cc1` was tested. Which IC50 did it give?
Answer: > 100 µM (inactive)

Question: For `COc1ccc(Nc2cnn(-c3nc4ccccc4s3)c(=O)c2Cl)cc1`, which IC50 is on record?
Answer: > 100 µM (inactive)

Question: `O=C(Cc1ccccc1)NCCc1cn2ccsc2n1` was tested. Which IC50 did it give?
Answer: > 100 µM (inactive)

Question: `COc1ccc2cc(C(=O)O)ccc2c1` was tested. Which pIC50 did it give?
Answer: 4.86

Question: How did the pIC50 turn out when `CCCC1COC(Cn2cncn2)(c2ccc(Cl)cc2Cl)O1` (stereo not drawn) was run?
Answer: 6.56

Question: How did the pIC50 turn out when `O=C1C=C(c2ccc(Cl)cc2)C(=O)N1Nc1ccccc1` was run?
Answer: 5.33

Question: How did the pIC50 turn out when `CC1(C)CC(=NOC(=O)c2ccccc2)CC(C)(C)N1O` was run?
Answer: 5.09

Question: `COc1cccc(C(=O)O/N=C(\N)Cc2ccc(Cl)cc2)c1` was tested. Which pIC50 did it give?
Answer: 5.39

Question: `COc1ccc(Br)cc1C1CC(=O)N2CN(C)CSC2=C1C#N` (stereo not drawn) was tested. Which IC50 did it give?
Answer: > 100 µM (inactive)

Question: `Cc1ccc(-c2cc(-c3ccccc3C)[nH]n2)c(O)c1` was tested. Which pIC50 did it give?
Answer: 4.80

Question: `O=c1cc(-c2ccncc2)oc2ccccc12` was tested. Which pIC50 did it give?
Answer: 4.29

Question: With `CCCn1c(Nc2nc3ccccc3n2C)nc2ccccc21` as the compound, how does the pIC50 read?
Answer: 4.36

Question: How did the pIC50 turn out when `O=c1c2sc(-c3ccccc3)cc2nc2n1CCC2` was run?
Answer: 4.86

Question: With `Cc1nc(N/N=C/c2ccccn2)sc1C` as the compound, how does the pIC50 read?
Answer: 4.47

Question: With `COc1cccc(-n2nnnc2S(C)(=O)=O)c1` as the compound, how does the pIC50 read?
Answer: 5.02

Question: With `c1ccc(-c2nc3c(ccc4ccccc43)[nH]2)nc1` as the compound, how does the pIC50 read?
Answer: 4.51

Question: With `CCC(=O)c1c(O)n(C2CCCCCC2)c(=O)[nH]c1=O` as the compound, how does the pIC50 read?
Answer: 4.63
